Experimental findings from patent US20110002877A1, “PTEN Inhibitors Treat Neutropenia-Associated Pneumonia” (priority 2009, published 2011) are described below.

The test system of the series is circulating neutrophils. The following applies: day 5; two i.p. injections, total 250 mg/kg (150 mg/kg day 1, 100 mg/kg day 4).

Each structure is given as a SMILES string.

Description: We first examined neutrophil recruitment and its bacteria-killing capability under neutropenic conditions. We induced neutropenia using a widely used chemotherapeutic drug, cyclophosphamide (Cy), which is used primarily to treat cancer.
We also examined neutrophil recruitment and its bacteria-killing capability under neutropenic conditions. We induced neutropenia using a widely used chemotherapeutic drug, cyclophosphamide (Cy).

In the case of `O=P1(N(CCCl)CCCl)NCCCO1` (stereo not shown) [Cy, cyclophosphamide], the “fewer circulating neutrophils than the untreated group” value is reported as “approximately 90%”.
